# Source: US10161929B2, “Theranostics platform and methods of use” (Sanford Burnham Prebys Medical Discovery Institute, priority 2012, dated 2018)
# Experiments:
# Format in all cases: cell-based, human
# [1] = tested on: Immortalized fibroblasts from a CMD patient; experiment: Laminin binding, immortalized fibroblasts from a CMD patient (FIG. 5); settings: dose response curve
# Method: FIG. 5. […] A dose response curve for Givinostat was prepared measuring laminin staining intensity at various concentrations of the compound. Laminin was labeled with rabbit anti-laminin antibodies. Nuclei are stained with DAPI. Fibroblasts obtained from a muscular dystrophy patient were seeded at 3000 cells per well in 384-well plates and treated in duplicate at 10 μm with individual compounds from the drug/nutraceutical library. After 48 hours in culture conditions, the cells were exposed to serum free media containing 0.1% BSA and 10 ug/ml laminin from Engelbreth-Holm-Swarm murine sarcoma basement membrane for a period of 2 hours. Cells were then fixed with 4% paraformaldehyde and stained with DAPI and a laminin-specific antibody, followed by a fluorescently labeled secondary antibody directed against the laminin specific antibody. The plates were then scanned using an Opera high content confocal microscopy screening system (PerkinElmer) at 20× magnification with separate fluorescent exposures, utilizing a UV light source and a 561 nm laser. Image analysis was performed to quantify levels of laminin staining using a customized algorithm written with Acapella software (Perkin Elmer). The cytoplasm was defined using DAPI staining as a mask, and the average cytoplasmic intensity of fluorescence per cell was calculated on the basis of at least six random fields captured per well.
# [2] = tested on: Fibroblasts obtained from a muscular dystrophy patient; experiment: Laminin binding assay (high content screen) in fibroblasts from a muscular dystrophy patient; settings: for hit in the laminin binding screen (normalizes fibroblast laminin binding; at least 20% activity compared with controls): 10 μm, duplicate, 48 hours, 384-well plates, anti-laminin staining
# Method: (§1) Fibroblasts obtained from a muscular dystrophy patient were seeded at 3000 cells per well in 384-well plates and treated in duplicate at 10 μm with individual compounds from the drug/nutraceutical library. After 48 hours in culture conditions, the cells were exposed to serum free media containing 0.1% BSA and 10 ug/ml laminin from Engelbreth-Holm-Swarm murine sarcoma basement membrane for a period of 2 hours. Cells were then fixed with 4% paraformaldehyde and stained with DAPI and a laminin-specific antibody, followed by a fluorescently labeled secondary antibody directed against the laminin specific antibody. The plates were then scanned using an Opera high content confocal microscopy screening system (PerkinElmer) at 20× magnification with separate fluorescent exposures, utilizing a UV light source and a 561 nm laser.
# (§2) Image analysis was performed to quantify levels of laminin staining using a customized algorithm written with Acapella software (Perkin Elmer). The cytoplasm was defined using DAPI staining as a mask, and the average cytoplasmic intensity of fluorescence per cell was calculated on the basis of at least six random fields captured per well.
# A compound in the drug/nutraceutical library was considered to normalize the level of fibroblast laminin binding if the compound scored at least 20% activity compared with controls. Fibroblasts from a healthy individual, or from patient cells treated with Trichostatin A at 2 uM were used as positive controls.
# Trichostatin A, SAHA, and Givinostat (another HDAC inhibitor in the same class as Trichostatin A and SAHA) were further tested in an eight-point dose-response assay (at a range of 20-0.02 μm, at three fold dilutions) in triplicate.
# [3] = tested on: fibroblasts from the CMD-FKRP patient; experiment: Laminin binding, fibroblasts from FKRP deficient patients (FIG. 6, FIG. 9)
# Source text: FIG. 6. Fibroblasts were obtained from CMD patients with either low (CMD-FKRP) laminin binding, mid-range laminin binding (LGMD/CMD-FKRP), or closer to normal (LGMD-FKRP) laminin binding. […] Laminin was labeled with rabbit anti-laminin antibodies. Nuclei are stained with DAPI.
# (§3) FIG. 9. Fibroblasts were taken from an FKRP deficient CMD patient and a POMT1 deficient CMD patient. […] Laminin is labeled with rabbit anti-laminin antibodies. Nuclei are stained with DAPI.
# Fibroblasts obtained from a muscular dystrophy patient were seeded at 3000 cells per well in 384-well plates and treated in duplicate at 10 μm with individual compounds from the drug/nutraceutical library. After 48 hours in culture conditions, the cells were exposed to serum free media containing 0.1% BSA and 10 ug/ml laminin from Engelbreth-Holm-Swarm murine sarcoma basement membrane for a period of 2 hours. […]
# as §2
# [4] = tested on: fibroblasts from the CMD-POMT1 patient; experiment: Laminin binding, fibroblasts from a POMT1 deficient CMD patient (FIG. 9)
# Method: as §3, §1, §2
SMILES,levels of laminin binding (laminin staining intensity) [1],hit in the laminin binding screen (normalizes fibroblast laminin binding; at least 20% activity compared with controls) [2],"laminin binding of patient's fibroblasts after treatment ([2]; fibroblasts from a CMD-affected patient, compared with unaffected sibling, rabbit anti-laminin antibodies, FIG. 4)","laminin binding ([3]; fibroblasts from the CMD-FKRP patient, FIG. 9)","laminin binding ([3]; fibroblasts with low (CMD-FKRP), mid-range (LGMD/CMD-FKRP) or closer to normal (LGMD-FKRP) laminin binding, FIG. 6)",laminin binding [4]
CCN(CC)Cc1ccc2cc(COC(=O)Nc3ccc(C(=O)NO)cc3)ccc2c1 [Givinostat],increased levels of laminin binding,–,–,–,–,–
O=C(CCCCCCC(=O)Nc1ccccc1)NO [SAHA],–,identified as hits,normalized to the levels of the patient's unaffected sibling,–,–,–
CC(/C=C/C(=O)NO)=C\[C@@H](C)C(=O)c1ccc(N(C)C)cc1 [Trichostatin A],–,identified as hits,–,increased laminin binding,increased laminin binding,did not result in visibly increased laminin binding
